Earlier results in patent US20010006686A1, “INFLAMMATORY MEDIATION OBTAINED FROM ATRACTYLODES LANCEA” (priority 1999, published 2001).

Biological target: T1, cyclooxygenase-1 (Ovis aries, UniProt P05979)
T1 sequence (P05979 25-600): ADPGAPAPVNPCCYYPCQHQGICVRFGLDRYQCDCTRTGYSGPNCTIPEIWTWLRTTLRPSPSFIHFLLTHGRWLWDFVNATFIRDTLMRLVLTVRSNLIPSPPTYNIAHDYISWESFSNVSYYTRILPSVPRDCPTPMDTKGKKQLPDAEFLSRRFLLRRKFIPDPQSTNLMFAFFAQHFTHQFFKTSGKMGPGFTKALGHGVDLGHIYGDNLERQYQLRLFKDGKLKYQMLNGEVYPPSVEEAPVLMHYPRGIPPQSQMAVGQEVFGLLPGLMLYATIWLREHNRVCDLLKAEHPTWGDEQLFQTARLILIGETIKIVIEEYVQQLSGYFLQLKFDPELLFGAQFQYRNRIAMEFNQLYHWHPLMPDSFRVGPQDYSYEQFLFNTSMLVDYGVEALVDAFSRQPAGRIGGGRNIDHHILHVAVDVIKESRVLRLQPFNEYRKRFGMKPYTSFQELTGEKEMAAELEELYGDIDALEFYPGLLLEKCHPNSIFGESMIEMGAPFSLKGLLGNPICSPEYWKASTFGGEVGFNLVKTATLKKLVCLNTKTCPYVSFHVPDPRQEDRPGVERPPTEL
Conditions: Resch, et al., J. Nat. Prod., 61, 347-350 (1998)

- inhibitory effects on COX-1 activity (in words): significant COX-1 inhibitory effects
Structure (SMILES): CC(C)=CCCC1(C)C=Cc2cc(O)cc(C)c2O1 (stereo not shown) [atractylochromene]
